The values below are quoted from earlier work in article PMC9736855, “Discovery of 3-Amino-1H-pyrazole-Based Kinase Inhibitors to Illuminate the Understudied PCTAIRE Family” (International Journal of Molecular Sciences, 2022).

In data set [1] the test system is 359 wild-type kinases. Further details: method as in PMID 19053485. As to conditions: kinome-wide screen; cited from earlier work.
Data set [2] addresses T1, CDK2 (Homo sapiens, UniProt P24941).
T1 construct: purchased in-house DSF panel (SGC Frankfurt)
To be noted: cited from earlier work.

Structures are written as SMILES.

With `N#CCc1ccc(Nc2nccc(Nc3cc(C4CC4)[nH]n3)n2)cc1` [compound 1, reference compound], the “number of kinases targeted of 359 wild-type kinases” value in data set [1] is 337. The Kd (commonly a measure of binding affinity in units of concentration) in data set [2] was 4.6 nM.
